Experimental data reported in US20260183407A1, “DYRK/CLK PROTACS AND USES THEREOF” (Arizona Board of Regents on Behalf of the University of …, priority 2022, published 2026).

Tests used:
DYRK1A [1] = biological target: T1, DYRK1A (Homo sapiens, UniProt Q13627); assay: HiBiT split luciferase assay of targeted degradation of DYRK1A in Flp-In T-REx 293 cells; type: cell-based; details: 300 nM compound, 24 h, HiBiT-tagged DYRK1A in Flp-In T-REx 293 cells, normalized to vehicle; read-out: Relative Degradation at 300 nM DYRK1A
T1 construct: purchased Eurofins; host or cells: E. coli BL21-derived (T7 phage display) or HEK-293
From the text: (§1) The Flp-In T-REx 293 Cell Line and the pcDNA5/FRT/TO vector (Invitrogen) were used to generate stable cell clones for tetracyclin-inducible expression of DYRK1A and DYRK1B. These cells contain a single stably integrated Flp recognition target (FRT) site, which allows for site-specific integration of the expression cassette by the Flp (Flippase) recombinase. DYRK1 constructs were designed to contain a C-terminal HiBiT tag for quantitative detection of HiBiT-tagged proteins in cellular lysates with the help a split luciferase assay (Nano-Glo HiBiT Lytic Detection System, Promega). To monitor the targeted degradation of DYRK1A or DYRK1B, cells were seeded in 96-well plates (10,000 cells/per well) and treated with doxycyclineinal concentration 2 μg/ml) to induce DYRK1 expression. Compounds with presumed PROTAC activity were administered 24 h after seeding. After further incubation for 24 h, cells were grossly and microscopically inspected for overt toxicity. Cells were lysed in 100 μL ice-cold passive lysis buffer (PLB, Promega) by orbital shaking (30 min on ice) before lysates were centrifuged in PCR tube (20 min 20,000 g, RT). A 10 μl aliquot of the supernatant was subjected to the HiBiT lytic assay. Luminescence was quantified in an Orion Microplate luminometer (Berthold Detection System, Germany). All compounds were tested in duplicate or triplicate wells (technical replicates) and at least two independent experiments. Relative degradation was calculated by normalization to vehicle-treated control samples.

DYRK1B [2] = biological target: T2, DYRK1B (Homo sapiens, UniProt Q9Y463); assay: HiBiT split luciferase assay of targeted degradation of DYRK1B in Flp-In T-REx 293 cells; type: cell-based; details: 300 nM compound, 24 h, HiBiT-tagged DYRK1B in Flp-In T-REx 293 cells, normalized to vehicle; read-out: Relative Degradation at 300 nM DYRK1B
T2 construct: purchased Eurofins; host or cells: E. coli BL21-derived (T7 phage display) or HEK-293
T2 sequence (Q9Y463 whole entry, species assumed): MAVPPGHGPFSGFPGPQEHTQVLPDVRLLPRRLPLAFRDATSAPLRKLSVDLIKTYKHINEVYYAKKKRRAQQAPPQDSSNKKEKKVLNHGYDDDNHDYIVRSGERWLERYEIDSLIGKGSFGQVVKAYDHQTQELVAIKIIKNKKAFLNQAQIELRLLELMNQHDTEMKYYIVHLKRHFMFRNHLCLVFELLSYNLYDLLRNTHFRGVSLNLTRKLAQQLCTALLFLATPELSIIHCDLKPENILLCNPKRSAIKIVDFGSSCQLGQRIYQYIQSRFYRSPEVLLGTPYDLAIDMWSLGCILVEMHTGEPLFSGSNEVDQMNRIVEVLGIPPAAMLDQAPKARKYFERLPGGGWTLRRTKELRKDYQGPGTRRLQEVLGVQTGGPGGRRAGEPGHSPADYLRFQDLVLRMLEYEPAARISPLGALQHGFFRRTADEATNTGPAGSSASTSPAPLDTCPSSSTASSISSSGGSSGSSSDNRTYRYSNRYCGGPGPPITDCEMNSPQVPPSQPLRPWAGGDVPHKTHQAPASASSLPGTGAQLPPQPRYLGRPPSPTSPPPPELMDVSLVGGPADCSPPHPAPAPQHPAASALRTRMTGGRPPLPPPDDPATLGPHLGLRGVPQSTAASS
From the text: as §1

DYRK1A [3] = biological target: T1, DYRK1A; assay: KdELECT kinase binding assay (Eurofins), DYRK1A; details: 11-point 3-fold dilution series, qPCR readout; read-out: Binding Affinity (Kd) DYRK1A
Protocol: (§2) KDs were obtained from Eurofins who used the following procedure: Kinase tagged T7 phase strains were prepared in an E. coli host derived from the BL21 strain. E. coli were grown to log-phase and infected with T7 phage and incubated with shaking at 32° C. until lysis. The lysates were centrifuged and filtered to remove cell debris. The remaining kinases were produced in HEK-293 cells and subsequently tagged with DNA for qPCR detection. Streptavidin-coated magnetic beads were treated with biotinylated small molecule ligands for 30 minutes at room temperature to generate affinity resins for kinase assays. The liganded beads were blocked with excess biotin and washed with locking buffer (SeaBlock (Pierce), 1% BSA, 0.05% Tween 20, 1 mM DTT) to remove unbound ligand and to reduce non-specific binding. Binding reactions were assembled by combining kinases, liganded affinity beads, and test compounds in 1× binding buffer (20% SeaBlock, 0.17× PBS, 0.05% Tween 20, 6 mM DTT). Test compounds were prepared as 111X stocks in 100% DMSO. Kds were determined using a 11-poin 3-fold compound dilution series with three DMSO control points. All compounds for Kd measurements are distributed by acoustic transfer (non-contact dispensing) in 100% DMSO. The compounds were then diluted directly into the assays such that the final concentration of DMSO was 0.9%. All reactions performed in polypropylene 384-well plate. Each was a final volume of 0.02 mL. The assay plates were incubated at room temperature with shaking for 1 hour and the affinity beads were washed with wash buffer (1×PBS, 0.05% Tween 20). The beads were then resuspended in elution buffer (1X PBS, 0.05% Tween 20, 0.5 µM nonbiotinylated affinity ligand) and incubated at room temperature with shaking for 30 minutes. The kinase concentration in the eluates was measured by qPCR.

DYRK1B [4] = biological target: T2, DYRK1B; assay: KdELECT kinase binding assay (Eurofins), DYRK1B; details: 11-point 3-fold dilution series, qPCR readout; read-out: Binding Affinity (Kd) DYRK1B
Protocol: as §2

Row | inhibition at 0.3 µM (DYRK1A [1]) [%] | inhibition at 0.3 µM (DYRK1B [2]) [%] | Kd (DYRK1A [3]) [nM] | Kd (DYRK1B [4]) [nM] | SMILES
1 | < 30 | < 30 | < 10 | < 10 | Cc1ncsc1-c1ccc(CNC(=O)[C@@H]2C[C@@H](O)CN2C(=O)[C@@H](NC(=O)CCOCCOCCN2CCN(c3ccc(-n4c(C)nc5ccc(-c6ccnc(N)c6)nc54)cc3F)CC2)C(C)(C)C)cc1 [Compound 1, (2S,4R)-1-((S)-2-(3-(2-(2-(4-(4-(5-(2-aminopyridin-4-yl)-2-methyl-3H-imidazo[4,5-b]pyridin-3-yl)-2-fluorophenyl)piperazin-1-yl)ethoxy)ethoxy)propanamido)-3,3-dimethylbutanoyl)-4-hydroxy-N-(4-(4-methylthiazol-5-yl)benzyl)pyrrolidine-2-carboxamide]
2 | 30 to 60 | < 30 | < 10 | < 10 | Cc1nc2ccc(-c3ccnc(N)c3)nc2n1-c1ccc(N2CCN(CCOCCOCCNc3cccc4c3C(=O)N(C3CCC(=O)NC3=O)C4=O)CC2)c(F)c1 (centres unmarked) [Compound 5, 4-((2-(2-(2-(4-(4-(5-(2-aminopyridin-4-yl)-2-methyl-3H-imidazo[4,5-b]pyridin-3-yl)-2-fluorophenyl)piperazin-1-yl)ethoxy)ethoxy)ethyl)amino)-2-(2,6-dioxopiperidin-3-yl)isoindoline-1,3-dione]
3 | > 60 | > 50 | < 10 | 10 to 100 | Cc1nc2ccc(-c3ccnc(N)c3)nc2n1-c1ccc(N2CCN(CC#Cc3ccc(N4CCC(C(=O)N5CCC(n6cc(CNc7cccc8c7C(=O)N(C7CCC(=O)NC7=O)C8=O)cn6)CC5)CC4)nc3)CC2)c(F)c1 (centres unmarked) [Compound 18, 4-(((1-(1-(1-(5-(3-(4-(4-(5-(2-aminopyridin-4-yl)-2-methyl-3H-imidazo[4,5-b]pyridin-3-yl)-2-fluorophenyl)piperazin-1-yl)prop-1-yn-1-yl)pyridin-2-yl)piperidine-4-carbonyl)piperidin-4-yl)-1H-pyrazol-4-yl)methyl)amino)-2-(2,6-dioxopiperidin-3-yl)isoindoline-1,3-dione]
4 | < 30 | < 30 | < 10 | < 10 | Cc1ncsc1-c1ccc(CNC(=O)[C@@H]2C[C@@H](O)CN2C(=O)[C@@H](NC(=O)CCOCCOCCOCCOCCOCCN2CCN(c3ccc(-n4c(C)nc5ccc(-c6ccnc(N)c6)nc54)cc3F)CC2)C(C)(C)C)cc1 [Compound 4, (2S,4R)-1-((S)-1-(4-(4-(5-(2-aminopyridin-4-yl)-2-methyl-3H-imidazo[4,5-b]pyridin-3-yl)-2-fluorophenyl)piperazin-1-yl)-20-(tert-butyl)-18-oxo-3,6,9,12,15-pentaoxa-19-azahenicosan-21-oyl)-4-hydroxy-N-(4-(4-methylthiazol-5-yl)benzyl)pyrrolidine-2-carboxamide]
5 | < 30 | < 30 | < 10 | < 10 | Cc1ncsc1-c1ccc(CNC(=O)[C@@H]2C[C@@H](O)CN2C(=O)[C@@H](NC(=O)CCOCCOCCOCCOCCN2CCN(c3ccc(-n4c(C)nc5ccc(-c6ccnc(N)c6)nc54)cc3F)CC2)C(C)(C)C)cc1 [Compound 3, (2S,4R)-1-((S)-1-(4-(4-(5-(2-aminopyridin-4-yl)-2-methyl-3H-imidazo[4,5-b]pyridin-3-yl)-2-fluorophenyl)piperazin-1-yl)-17-(tert-butyl)-15-oxo-3,6,9,12-tetraoxa-16-azaoctadecan-18-oyl)-4-hydroxy-N-(4-(4-methylthiazol-5-yl)benzyl)pyrrolidine-2-carboxamide]
